Test results published in PubChem BioAssay (NCI).
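Growth conditions: 96-well plates. Treatment: test compound, 48 hours, 5 concentrations. Analysis: linear interpolation between bracketing concentrations; unreached endpoints set to highest concentration. Abbreviation: GI50, concentration required for 50% inhibition of growth. TGI marks complete inhibition of growth.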

How the values were obtained:
Assay in all cases: NCI tumour cell line growth inhibition, 48 h
[1] = test system: SF-295 CNS
[2] = test system: K-562 leukemia
[3] = test system: SK-OV-3 ovarian
[4] = test system: M14 melanoma
[5] = test system: HT29 colon
[6] = test system: EKVX NSCLC
[7] = test system: CCRF-CEM leukemia
[8] = test system: HOP-62 NSCLC
[9] = test system: HCT-116 colon
[10] = test system: SK-MEL-2 melanoma

CC(C)(C)OC(=O)N(CCCN(CCn1c2c(c3ccccc3c1=O)C(=O)c1ccccc1-2)C(=O)OC(C)(C)C)CCn1c2c(c3ccccc3c1=O)C(=O)c1ccccc1-2
GI50 [1]: 15.3 µM | TGI [1]: > 50 µM | GI50 [2]: 12.4 µM | TGI [2]: 46 µM | GI50 [3]: > 50 µM | TGI [3]: > 50 µM | GI50 [4]: > 50 µM | TGI [4]: > 50 µM | GI50 [5]: > 50 µM | TGI [5]: > 50 µM | GI50 [6]: > 50 µM | TGI [6]: > 50 µM | GI50 [7]: 13.3 µM | TGI [7]: > 50 µM | GI50 [8]: 22.3 µM | TGI [8]: > 50 µM | GI50 [9]: 22.7 µM | TGI [9]: > 50 µM | GI50 [10]: > 50 µM | TGI [10]: > 50 µM

CCCCCCCCCCCCCCCCOP(=O)(O)Oc1ccc(/C=C\c2ccc(OP(=O)(O)OCCCCCCCCCCCCCCCC)cc2)cc1
TGI [1]: > 100 µM | TGI [2]: > 100 µM | TGI [3]: > 100 µM | TGI [4]: > 100 µM | TGI [5]: > 100 µM | TGI [6]: > 100 µM | TGI [7]: 88.7 µM | TGI [8]: > 100 µM | TGI [9]: > 100 µM | TGI [10]: > 100 µM

O=c1[nH]c(=O)n(C2CC(O)C(CS)O2)cc1F (configuration not stated)
TGI [1]: > 100 µM | TGI [2]: > 100 µM | TGI [3]: > 100 µM | TGI [4]: > 100 µM | TGI [5]: > 100 µM | TGI [6]: > 100 µM | TGI [7]: > 100 µM | TGI [8]: > 93.8 µM | TGI [9]: > 100 µM | TGI [10]: > 100 µM

CNC1C(=O)C(C)C(O)(C(CC(C)C(O)/C=C/C=C/CNC(=O)C(C)(C)C(O)\C(C)=C/C=C\C=C\Cc2cnc(C)o2)OC)C12C(=O)OC2COC (configuration not stated) (tested in a mixture with another compound)
TGI [1]: > 53.3 µM | TGI [2]: 5.42 µM | TGI [3]: > 100 µM | TGI [4]: 27 µM | TGI [5]: 20.7 µM | TGI [6]: > 64.4 µM | TGI [7]: 38.5 µM | TGI [8]: 24.1 µM | TGI [9]: > 49.9 µM | TGI [10]: > 71.7 µM

CCN(CC)C(=O)C/C(C)=N/NC(=O)c1ccncc1
TGI [1]: > 100 µM | TGI [2]: > 100 µM | TGI [3]: > 100 µM | TGI [4]: > 100 µM | TGI [5]: > 100 µM | TGI [6]: > 100 µM | TGI [7]: > 100 µM | TGI [8]: > 100 µM | TGI [9]: > 100 µM | TGI [10]: > 100 µM

COC(=O)C(=O)C(C(=O)C(=O)Nc1ccc(C)cc1C)c1nc2ccccc2[nH]c1=O (configuration not stated)
TGI [1]: > 100 µM | TGI [2]: > 100 µM | TGI [3]: > 100 µM | TGI [4]: > 100 µM | TGI [5]: > 100 µM | TGI [6]: > 100 µM | TGI [7]: > 100 µM | TGI [8]: > 100 µM | TGI [9]: > 100 µM | TGI [10]: > 100 µM

O=C(O)C(Sc1ccc(Cl)cc1)Sc1ccc(Cl)cc1
TGI [1]: > 100 µM | TGI [2]: > 100 µM | TGI [3]: > 100 µM | TGI [4]: > 100 µM | TGI [5]: > 100 µM | TGI [6]: > 100 µM | TGI [7]: > 100 µM | TGI [8]: > 100 µM | TGI [9]: > 100 µM | TGI [10]: 69.1 µM

CC[C@H](C)[C@H](NC(=O)[C@H]1CCCCN1C)C(=O)N(C)[C@H](CCc1nc(C(=O)N[C@@H](Cc2ccccc2)C[C@H](C)C(=O)OC)cs1)C(C)C
GI50 [1]: 0.459 µM | TGI [1]: > 25 µM | GI50 [2]: 0.121 µM | TGI [2]: > 25 µM | GI50 [3]: 0.797 µM | TGI [3]: > 25 µM | GI50 [4]: 0.215 µM | GI50 [5]: 0.202 µM | TGI [5]: 3.06 µM | GI50 [6]: 1.11 µM | TGI [6]: > 25 µM | GI50 [7]: 0.265 µM | TGI [7]: > 25 µM | GI50 [8]: 0.777 µM | TGI [8]: > 22.9 µM | GI50 [9]: 0.118 µM | TGI [9]: > 5.35 µM | GI50 [10]: 0.104 µM | TGI [10]: 15.9 µM

COc1cc([C@@H]2c3cc4c(cc3C(O[C@@H]3O[C@@H]5CO[C@@H](c6cccs6)OC5[C@H](O)[C@H]3O)C3COC(=O)[C@@H]32)OCO4)cc(OC)c1O (some centres not stated)
GI50 [1]: 0.0224 µM | TGI [1]: 0.712 µM | GI50 [2]: 0.111 µM | TGI [2]: 19.3 µM | GI50 [3]: 0.102 µM | TGI [3]: 0.81 µM | GI50 [4]: 0.0732 µM | TGI [4]: 0.888 µM | GI50 [5]: 0.123 µM | TGI [5]: 1.1 µM | GI50 [6]: 0.677 µM | TGI [6]: 14.4 µM | GI50 [7]: 0.00941 µM | TGI [7]: 0.175 µM | GI50 [8]: 0.0283 µM | TGI [8]: 0.137 µM | GI50 [9]: 0.0721 µM | TGI [9]: 1.28 µM | GI50 [10]: 0.207 µM | TGI [10]: 0.87 µM

Cn1cc(-c2csc(-c3cccc(F)c3)n2)c2cccnc21
GI50 [1]: 14.9 µM | TGI [1]: 33.7 µM | GI50 [2]: 23.3 µM | TGI [2]: 87.1 µM | GI50 [3]: 24.9 µM | TGI [3]: 62.2 µM | GI50 [4]: 15.3 µM | TGI [4]: 29.5 µM | GI50 [5]: 14.2 µM | TGI [5]: 27.9 µM | GI50 [6]: 12.5 µM | TGI [6]: 37.6 µM | GI50 [7]: 35.9 µM | TGI [7]: > 100 µM | GI50 [8]: 18.9 µM | TGI [8]: 34.5 µM | GI50 [9]: 14.2 µM | TGI [9]: 27.3 µM | GI50 [10]: 23.5 µM | TGI [10]: 55.2 µM

NCCCCn1c2c(c3ccccc3c1=O)C(=O)c1ccccc1-2
GI50 [1]: 0.0726 µM | TGI [1]: 0.753 µM | GI50 [2]: 0.168 µM | GI50 [3]: 1.04 µM | TGI [3]: 9.81 µM | GI50 [4]: 0.417 µM | TGI [4]: 1.86 µM | GI50 [5]: 0.163 µM | GI50 [6]: 1.21 µM | TGI [6]: 4.62 µM | GI50 [7]: 0.0195 µM | TGI [7]: 1.6 µM | GI50 [8]: 0.0528 µM | TGI [8]: 0.272 µM | GI50 [9]: 0.092 µM | TGI [9]: 1.76 µM | GI50 [10]: 2.38 µM | TGI [10]: > 42.4 µM

Cc1ccc(N=NC(C(=O)c2ccccc2)C(=O)c2ccccc2)cc1
TGI [1]: > 100 µM | TGI [2]: 88.2 µM | TGI [3]: 96 µM | TGI [4]: 34.5 µM | TGI [5]: 62.2 µM | TGI [6]: > 100 µM | TGI [7]: 69.4 µM | TGI [8]: 71.9 µM | TGI [9]: 65.6 µM | TGI [10]: 55.4 µM

O=C(C[C@@H](C(=O)NCc1cccc(C(F)(F)F)c1)N1C(=O)[C@@H](N2C(=O)OC[C@@H]2c2ccccc2)[C@H]1/C=C/c1ccccc1)NC1CCN(Cc2ccccc2)CC1
GI50 [1]: 15.6 µM | TGI [1]: 30.8 µM | GI50 [2]: 1.77 µM | TGI [2]: 4.17 µM | GI50 [3]: 15.3 µM | TGI [3]: 28.6 µM | GI50 [4]: 4.58 µM | TGI [4]: 20.4 µM | GI50 [5]: 1.67 µM | TGI [5]: 3.53 µM | GI50 [6]: 15.1 µM | TGI [6]: 41.7 µM | GI50 [7]: 2.79 µM | TGI [7]: 7.84 µM | GI50 [8]: 14.5 µM | TGI [8]: 27.7 µM | GI50 [9]: 1.95 µM | TGI [9]: 4.04 µM | GI50 [10]: 14.1 µM | TGI [10]: 30.6 µM

COc1ccc(OC(=O)O[C@H]2[C@H](O[C@H]3[C@@H](O)COC(O[C@H]4C[C@H]5[C@@H]6CC=C7C[C@@H](O)CC[C@]7(C)[C@H]6CC[C@]5(C)[C@H]4[C@H](C)C(=O)CCC(C)C)[C@@H]3OC(C)=O)OC[C@@H](O)[C@@H]2O)cc1 (some centres not stated)
GI50 [1]: < 0.01 µM | TGI [1]: 0.0193 µM | GI50 [2]: < 0.01 µM | TGI [2]: 10.6 µM | GI50 [3]: 0.329 µM | TGI [3]: 15.3 µM | GI50 [4]: 0.04 µM | TGI [4]: 0.262 µM | GI50 [5]: 0.541 µM | TGI [5]: 18.1 µM | GI50 [6]: 1.64 µM | TGI [6]: 19.6 µM | GI50 [7]: < 0.01 µM | TGI [7]: 0.145 µM | GI50 [8]: 0.0569 µM | TGI [8]: 11.4 µM | GI50 [9]: 0.0621 µM | TGI [9]: 14.1 µM | GI50 [10]: 0.0199 µM | TGI [10]: 0.645 µM
